Patent US20150010917A1, “METHOD TO IDENTIFY LIGANDS FOR SIGMA-1 RECEPTORS” (LABORATORIOS DEL DR. ESTEVE S.A., priority 2012, published 2015)

Key:
[1] = target: T1, σ1^spCFP/YFP construct expressed in HEK-293 cells (Homo sapiens, UniProt Q99720); assay: Single-cell real-time intramolecular FRET (iFRET) of the σ1 receptor FRET sensor; assay type: cell-based; details: for change in the FRET signal of the σ1^spCFP/YFP: 100 μM, single HEK-293 cell, FIG. 3
T1 construct: PTHR (PTH1R) signal peptide (N); expressed in transfected cells; host or cells: HEK-293 (stably transfected, G418 selected)
Experimental: In the single cell real time intramolecular-FRET approach both donor (i.e. CFP) and acceptor (i.e. YFP) are located in the same molecule, as designed for the σ1^CFP/YFP and the σ1^spCFP/YFP constructs (FIG. 1A). In brief, HEK cells permanently expressing the corresponding σ1 receptor FRET sensor were seeded in poly-D-Lysine coated coverslips and allow growing overnight. Then, the coverslips with transfected cells were mounted in an Attofluor holder and placed on an inverted Axio Observer microscope (Zeiss, Jena, Germany) equipped with a 63× oil immersion objective and a dual-emission photometry system (Till Photonics, Gräfelfing, Germany). The extracellular buffer was Hank's Balanced Salt Solution (HBSS), containing (in mM): 137 NaCl, 0.34 Na2HPO4, […], 0.44 KH2PO4, 0.5 MgCl2, 0.4 Mg2SO4, 1.26 CaCl2, 10 HEPES, 2 D-glucose and 1 ascorbic acid (pH 7.4 with NaOH).
A Polychrome V (Till Photonics) was used as the light source. The sample was illuminated with excitation light at 436±10 nm (beam splitter dichroic long-pass; DCLP 460 nm). Excitation time was 10 ms at 10 Hz, in order to limit photobleaching. Emission light intensities were determined at 535±15 and 480±20 nm (DCLP 505 nm). No corrections for spillover between channels or direct YFP excitation were made.
Single cells were selected for recording based on their σ1 expression as judged by its fluorescence. […] The ligands were applied using a pressure-driven, computer-controlled perfusion system (Octaflow; ALA Scientific Instruments, Westbury, N.Y., USA) and experiments were carried out at room temperature. Finally, a Digidata 1440 analog/digital converter (Molecular Devices, Sunnyvale, Calif., USA) was used for interfacing the photometry system and the perfusion system with a personal computer, which was used to control these systems and to record data. Finally, pCLAMP (Molecular Devices) and GraphPad Prism (GraphPad Software Inc., San Diego, Calif., USA) software were used for data collection and analysis.

σ1^YFP and CFP = assay: Control experiments with coexpression of σ1^YFP and CFP; assay type: cell-based, human; details: data not shown
Experimental: Next, we investigated whether σ1 challenge produced any rearrangements of the N- and C-terminal domains (i.e. conformational change) of the σ1 receptor by monitoring real time changes in the FRET efficiency. To this end, changes in the emission intensities of YFP (535 nm, yellow), CFP (480 nm, cyan) and the ratio F*535/F*480 (black) were recorded simultaneously from single cells after rapid superfusion with σ1 receptor ligands.

σ1 site = σ1 site (Homo sapiens, UniProt Q99720); details: cited from earlier work
sigma-2 (σ2) site = sigma-2 (σ2) site (Homo sapiens, UniProt Q5BJF2); details: cited from earlier work
sigma-2 (σ2) site, sequence (Q5BJF2 whole entry): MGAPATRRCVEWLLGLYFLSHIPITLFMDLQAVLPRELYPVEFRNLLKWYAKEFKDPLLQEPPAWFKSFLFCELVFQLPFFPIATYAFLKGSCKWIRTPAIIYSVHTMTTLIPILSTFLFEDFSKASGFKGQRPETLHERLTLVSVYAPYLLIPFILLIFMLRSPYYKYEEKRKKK

For `CCCN(CCC)CCc1ccc(OC)c(OCCc2ccccc2)c1` [NE-100], the “change in the FRET signal of the σ1^spCFP/YFP” value (from here on “change … of the σ1^spCFP/YFP”) [1] was “increase”.

In the case of `O=C(CCCN1CCC(O)(c2ccc(Cl)cc2)CC1)c1ccc(F)cc1` [Haloperidol], the “FRET in the presence of ligand” value (σ1^YFP and CFP) is reported as “no FRET”.

For `CCCN1CCC[C@H](c2cccc(O)c2)C1` [(+)-3-PPP], the “change … of the σ1^spCFP/YFP” value [1] was “decrease”.

For `COc1ccc2c(c1)[C@]13CCCC[C@@H]1[C@H](C2)N(C)CC3` [Dextromethorphan], the “change … of the σ1^spCFP/YFP” value [1] was “decrease”.

In the case of `O=C(OCCN1CCOCC1)C1(c2ccccc2)CCCCC1` [PRE-048], the “FRET in the presence of ligand” value (σ1^YFP and CFP) is reported as “no FRET”, the “delay before FRET change” value ([1]; 100 μM ligand) is reported as ~5 s and the “time constant τ of monoexponential time course of FRET change” value ([1]; 100 μM ligand, n=3) is reported as 10.3 ± 0.3 s. For the same compound, the “change in the F*535/F*480 ratio” value ([1]; 100 μM ligand, rapid superfusion, single HEK-293 cells, FIG. 2D-E) was “rapid decrease” and the “change … of the σ1^spCFP/YFP” value [1] was “decrease”.

For `C=CCN1CC[C@]2(C)c3cc(O)ccc3C[C@H]1[C@H]2C` [SKF-10,047], the “affinity for the σ1 site” value (σ1 site) is listed as “nanomolar affinity” and the “affinity for the sigma-2 (σ2) site” value (sigma-2 (σ2) site) is listed as “micromolar affinity”.

With `CC(C)=CCN1CCC2(C)c3cc(O)ccc3CC1C2C` (single isomer, unassigned; (+)) [(+)-Pentazocine] the “change … of the σ1^spCFP/YFP” value [1] was “decrease”.
